Laboratory results taken from US7557092B2, “Purinergic modulation of smell” (University of Utah Research Foundation, priority 2002, dated 2009).
Where two headings read alike, the source gives them in different places.

What was measured:
[1] = tested on: ORNs in mouse olfactory epithelium slices; experiment: confocal calcium imaging of fluo-4 AM loaded olfactory epithelium slices, ORNs; type: cell-based; conditions: for evoked calcium transients in olfactory epithelial slices: superfused onto olfactory epithelial slices (ORNs and sustentacular cells); for agonist-evoked calcium transients in ORNs: 10 μM agonist superfused onto slice
Source text: (§1) To study the effects of ATP on odor responses, acutely prepared slices of mouse olfactory epithelium were used. Confocal imaging of fluo-4 AM-loaded olfactory epithelium slices allows simultaneous recording from identified structures within the olfactory epithelium, i.e., both ORNs and sustentacular cells. […] The difference in robustness can be due to poor access to the ATP stimulus: odorant receptors are on the cilia of the ORNs, which extend beyond the outer edge of the olfactory epithelium, whereas purinergic receptors are located deeper within the olfactory epithelium. […] The latency of activation for the ATP-evoked calcium transient was shorter in the ORN (FIG. 3B2, solid up arrowhead) than in sustentacular cells (FIG. 3B3, open down arrowhead). Collectively, this was consistent with ORNs expressing the faster P2X receptors, and the sustentacular cells expressing the slower G-protein coupled P2Y receptors.
(§2) To prepare olfactory epithelium slices, neonatal mice (postnatal day 0-6) were quickly decapitated, and the skin and lower jaw were removed. Tissue was mounted in ice cold Ringers onto a vibratome-cutting block and 300 μm slices were made. Primary cultures of mouse ORNs were made using the same protocol and culture conditions as described for rat olfactory receptor neurons (Vargas and Lucero, 1999a). Briefly, tissue was placed in divalent cation-free Ringers containing 10 mg/ml bovine serum albumin, 1 mg/ml deoxyribonuclease II and 44 U/ml dispase, incubated at 37° C. for 45 min. The tissue was washed, triturated, and filtered through a […] mesh and […] cells were plated onto concanavalin A-coated coverslips and allowed to settle for 20 min. An additional 1.5 ml of culture medium was added (DMEM supplemented with […] ascorbic acid, 1X insulin-transferrin-seleniumX (GIBCO BRL), 2 mM glutamine, 100 U/ml penicillin G and […] streptomycin).
(§3) [Ca^2+]i was determined using confocal imaging of fluo-4 AM (18 μM; Molecular Probes) loaded cells and slices. Cells or slices were placed in a laminar flow chamber (Warner Instruments) and perfused continuously with Ringers solution at a flow rate of 1.5-2.0 ml/min. Ringers contained (mM): 140 NaCl, 5 KCl, 1 MgCl2, 2 CaCl2, 10 HEPES, 10 glucose, […] and 400 nM tetrodotoxin. Test solutions were applied using bath exchange and a small volume loop injector (200 μl). A Zeiss LSM 510 confocal laser scanning system was used for data collection and analysis. Time series experiments were performed collecting 1400×700 pixel images at 0.2-0.4 Hz. The fluorometric signals obtained are expressed as relative fluorescence change, ΔF/F═(F−F0)/F0, where F0 is the basal fluorescence level. Increases in F greater than 10% above baseline noise were considered responses.

P2X4 = molecular target: T1, P2X4 (Rattus norvegicus, UniProt P51577); conditions: cDNA from Rat superior cervical ganglion; cited from earlier work
T1 construct: host or cells: Xenopus oocytes
T1 sequence (P51577 1-388): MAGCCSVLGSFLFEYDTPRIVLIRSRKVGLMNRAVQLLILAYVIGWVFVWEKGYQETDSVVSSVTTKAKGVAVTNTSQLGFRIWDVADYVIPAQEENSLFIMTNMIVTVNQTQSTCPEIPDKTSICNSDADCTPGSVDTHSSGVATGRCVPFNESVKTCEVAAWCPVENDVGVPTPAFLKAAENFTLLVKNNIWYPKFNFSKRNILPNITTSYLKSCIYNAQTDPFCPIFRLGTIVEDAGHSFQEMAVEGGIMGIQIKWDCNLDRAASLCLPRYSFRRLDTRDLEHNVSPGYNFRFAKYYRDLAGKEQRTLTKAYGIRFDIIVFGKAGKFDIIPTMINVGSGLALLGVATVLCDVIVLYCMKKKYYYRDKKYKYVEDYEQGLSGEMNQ

P2X2 = molecular target: T2, P2X2 (Rattus norvegicus, UniProt P49653); conditions: cDNA from Rat PC12 cells; cited from earlier work
T2 construct: host or cells: Xenopus oocytes
T2 sequence (P49653 1-472): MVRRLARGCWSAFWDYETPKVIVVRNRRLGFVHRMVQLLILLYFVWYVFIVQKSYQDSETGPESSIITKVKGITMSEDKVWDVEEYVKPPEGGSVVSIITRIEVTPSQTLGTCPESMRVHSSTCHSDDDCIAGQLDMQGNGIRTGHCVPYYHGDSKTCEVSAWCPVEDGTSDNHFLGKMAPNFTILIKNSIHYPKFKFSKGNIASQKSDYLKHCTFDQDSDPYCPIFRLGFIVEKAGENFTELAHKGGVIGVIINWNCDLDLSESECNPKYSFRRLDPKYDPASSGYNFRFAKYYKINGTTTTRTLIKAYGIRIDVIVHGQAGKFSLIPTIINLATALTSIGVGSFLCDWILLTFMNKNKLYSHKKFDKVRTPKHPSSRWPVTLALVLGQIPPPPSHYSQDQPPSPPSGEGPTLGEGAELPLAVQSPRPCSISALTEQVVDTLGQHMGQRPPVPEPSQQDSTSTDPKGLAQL

P2X5 = molecular target: T3, P2X5 (Rattus norvegicus, UniProt P51578); conditions: cDNA from Rat ganglia; cited from earlier work
T3 construct: host or cells: Xenopus oocytes
T3 sequence (P51578 1-455): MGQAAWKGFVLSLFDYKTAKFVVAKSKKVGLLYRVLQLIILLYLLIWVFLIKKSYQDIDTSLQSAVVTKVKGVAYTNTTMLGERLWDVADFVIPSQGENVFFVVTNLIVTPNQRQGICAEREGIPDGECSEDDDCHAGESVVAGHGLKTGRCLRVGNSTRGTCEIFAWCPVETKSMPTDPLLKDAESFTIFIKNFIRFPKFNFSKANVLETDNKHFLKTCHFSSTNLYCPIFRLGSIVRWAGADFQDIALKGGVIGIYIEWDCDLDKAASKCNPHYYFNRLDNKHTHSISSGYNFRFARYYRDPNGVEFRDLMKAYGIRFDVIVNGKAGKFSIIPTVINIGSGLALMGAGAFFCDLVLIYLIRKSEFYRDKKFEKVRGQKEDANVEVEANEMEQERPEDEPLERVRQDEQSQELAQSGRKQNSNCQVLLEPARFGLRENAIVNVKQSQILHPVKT

P2Y1 [2] = molecular target: P2Y1 (Rattus norvegicus, UniProt P49651); conditions: cited from earlier work
Sequence of P2Y1 (Rattus norvegicus, UniProt P49651) (P49651 whole entry): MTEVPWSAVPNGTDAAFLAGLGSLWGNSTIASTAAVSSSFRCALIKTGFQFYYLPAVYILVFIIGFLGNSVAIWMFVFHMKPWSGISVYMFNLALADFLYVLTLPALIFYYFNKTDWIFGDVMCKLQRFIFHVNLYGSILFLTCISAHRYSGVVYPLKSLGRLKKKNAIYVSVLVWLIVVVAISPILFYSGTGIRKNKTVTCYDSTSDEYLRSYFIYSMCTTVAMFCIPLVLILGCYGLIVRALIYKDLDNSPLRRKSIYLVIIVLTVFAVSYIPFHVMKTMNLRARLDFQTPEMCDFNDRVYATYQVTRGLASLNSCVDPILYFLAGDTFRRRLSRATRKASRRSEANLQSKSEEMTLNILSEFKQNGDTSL

P2X6 = molecular target: T4, P2X6 (Rattus norvegicus, UniProt P51579); conditions: cDNA from Rat superior cervical ganglion; cited from earlier work
T4 construct: host or cells: Xenopus oocytes
T4 sequence (P51579 whole entry): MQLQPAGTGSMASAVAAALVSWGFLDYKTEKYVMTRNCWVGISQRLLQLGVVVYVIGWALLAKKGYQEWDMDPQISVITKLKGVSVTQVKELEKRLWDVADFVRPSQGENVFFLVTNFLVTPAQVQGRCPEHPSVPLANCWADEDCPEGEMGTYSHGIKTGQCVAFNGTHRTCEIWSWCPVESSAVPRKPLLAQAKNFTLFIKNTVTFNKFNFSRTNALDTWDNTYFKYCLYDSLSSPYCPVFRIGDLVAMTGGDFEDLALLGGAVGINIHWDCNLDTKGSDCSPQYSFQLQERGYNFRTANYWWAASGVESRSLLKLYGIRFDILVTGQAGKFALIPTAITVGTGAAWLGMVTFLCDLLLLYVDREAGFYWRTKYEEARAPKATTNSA

[3] = tested on: odor responses of mouse ORNs in olfactory epithelium slices; experiment: co-application of odor and purinergic receptor agonist, calcium transients in olfactory epithelium slices; type: cell-based
[4] = tested on: sustentacular cells in mouse olfactory epithelium slices; experiment: confocal calcium imaging of fluo-4 AM loaded olfactory epithelium slices, sustentacular cells; type: cell-based; conditions: for agonist-evoked calcium transients in sustentacular cells: 10 μM agonist superfused onto slice
Source text: as §1, §2, §3

P2Y1 [5] = molecular target: P2Y1 (Gallus gallus, UniProt P34996); conditions: cDNA from Chick brain; cited from earlier work
Sequence of P2Y1 (Gallus gallus, UniProt P34996) (P34996 whole entry): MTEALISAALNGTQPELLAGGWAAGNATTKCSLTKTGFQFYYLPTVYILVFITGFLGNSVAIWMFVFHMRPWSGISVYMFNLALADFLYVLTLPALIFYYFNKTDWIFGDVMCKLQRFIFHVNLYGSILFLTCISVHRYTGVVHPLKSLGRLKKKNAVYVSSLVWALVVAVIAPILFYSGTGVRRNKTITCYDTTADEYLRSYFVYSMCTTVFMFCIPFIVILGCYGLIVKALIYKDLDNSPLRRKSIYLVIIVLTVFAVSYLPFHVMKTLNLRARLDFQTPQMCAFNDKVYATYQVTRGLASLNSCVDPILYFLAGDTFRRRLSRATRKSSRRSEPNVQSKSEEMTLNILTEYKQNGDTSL

P2X7 = molecular target: T5, P2X7 (Rattus norvegicus, UniProt Q64663); conditions: cDNA from Rat macrophage and brain; cited from earlier work
T5 construct: host or cells: Xenopus oocytes
T5 sequence (Q64663 1-595): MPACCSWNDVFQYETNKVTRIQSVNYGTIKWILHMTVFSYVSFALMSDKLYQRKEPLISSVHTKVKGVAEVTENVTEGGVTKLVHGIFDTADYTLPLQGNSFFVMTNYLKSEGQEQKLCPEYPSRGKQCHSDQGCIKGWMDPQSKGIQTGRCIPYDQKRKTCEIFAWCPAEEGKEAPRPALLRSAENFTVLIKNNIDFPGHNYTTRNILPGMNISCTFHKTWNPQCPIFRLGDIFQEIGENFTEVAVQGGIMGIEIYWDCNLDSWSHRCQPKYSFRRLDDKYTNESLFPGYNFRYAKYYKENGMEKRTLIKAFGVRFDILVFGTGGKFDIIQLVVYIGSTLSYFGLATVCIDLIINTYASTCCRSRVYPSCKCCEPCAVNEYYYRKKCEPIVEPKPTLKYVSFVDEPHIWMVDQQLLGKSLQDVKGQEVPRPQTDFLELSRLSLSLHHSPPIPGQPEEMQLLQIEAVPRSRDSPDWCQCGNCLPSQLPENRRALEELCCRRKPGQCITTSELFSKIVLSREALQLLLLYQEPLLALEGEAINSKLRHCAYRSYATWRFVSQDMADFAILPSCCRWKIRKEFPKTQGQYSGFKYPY

P2Y1 [6] = molecular target: P2Y1 (Meleagris gallopavo, UniProt P49652); conditions: cDNA from Turkey brain; cited from earlier work
Sequence of P2Y1 (Meleagris gallopavo, UniProt P49652) (P49652 whole entry): as the sequence (P34996 whole entry) above, with T28S counted along it

P2Y11 = molecular target: T6, P2Y11 (Homo sapiens, UniProt Q96G91); conditions: cDNA from Human placenta; cited from earlier work
T6 sequence (Q96G91 1-374): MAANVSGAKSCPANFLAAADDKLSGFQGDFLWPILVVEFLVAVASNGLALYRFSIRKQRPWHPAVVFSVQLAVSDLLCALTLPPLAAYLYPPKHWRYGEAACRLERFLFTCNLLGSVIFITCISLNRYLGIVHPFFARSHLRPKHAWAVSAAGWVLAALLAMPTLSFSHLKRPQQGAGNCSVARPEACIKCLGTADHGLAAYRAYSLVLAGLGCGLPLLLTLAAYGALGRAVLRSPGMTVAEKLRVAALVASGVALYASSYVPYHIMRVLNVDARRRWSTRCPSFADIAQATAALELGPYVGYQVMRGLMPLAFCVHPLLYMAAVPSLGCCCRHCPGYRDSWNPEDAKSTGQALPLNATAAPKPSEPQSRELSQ

[7] = co-application of 10 μM βγ-methylene ATP and odor, 2/16 cells
[8] = ORNs, PPADS 25 μm, reversible, n=5
[9] = sustentacular cells, PPADS, n=30

Nc1ncnc2c1ncn2[C@@H]1O[C@H](CO)[C@@H](O)[C@H]1O [Adenosine]
evoked calcium transients in olfactory epithelial slices [1]: never observed

Nc1ncnc2c1ncn2[C@@H]1O[C@H](COP(=O)(O)CP(=O)(O)OP(=O)(O)O)[C@@H](O)[C@H]1O [α,β-meATP, α,β-methylene ATP]
Agonist activity (P2X4): ATP; α,β-meATP inactive | Agonist activity (P2X2): 2MeSATP > ATP; α,β-meATP inactive | Agonist activity (P2X5): α,β-meATP inactive | Agonist activity (P2Y1 [2]; cDNA from Rat insulinoma cells): (α,β-meATP inactive) | Agonist activity (P2X6): ATP > 2MeSATP > ADP; α,β-meATP inactive

Nc1ncnc2c1ncn2[C@@H]1O[C@H](COP(=O)(O)OP(=O)(O)CP(=O)(O)O)[C@@H](O)[C@H]1O [βγ-methylene ATP, β,γ-methylene ATP]
ORNs with enhanced calcium transient amplitude ([3]; co-application of 10 μM βγ-MeATP and odors, 2 slices): 2/16 | ORNs with suppressed calcium transient amplitude ([3]; co-application of 10 μM βγ-MeATP and odors, 6 slices): 12/16 | change of amplitude in cells with no effect [3, 7]: 15±1% | enhancement of calcium transient amplitude [3, 7]: 168±44% | suppression of Ca2+ transient amplitude ([3]; co-application of 10 μM βγ-methylene ATP and odor, 2/16 cells as printed): 42±5% | reduction in the average amplitude of the Ca2+ transient, overall ([3]; co-application of 10 μM βγ-methylene ATP and odor, 16/16 cells): 25±11% | agonist-evoked calcium transients in ORNs [1]: responded | agonist-evoked calcium transients in sustentacular cells [4]: not the sustentacular cells

O=c1ccn([C@@H]2O[C@H](COP(=O)(O)OP(=O)(O)OP(=O)(O)O)[C@@H](O)[C@H]2O)c(=O)[nH]1 [UTP]
effect on co-application evoked calcium transient ([3]; P2Y selective agonists co-applied with odor): suppressed the co-application evoked calcium transient | Agonist activity (P2Y1 [5]): 2MeSATP > ATP > ADP; (UTP inactive) | Agonist activity (P2X7): BzATP > ATP > 2MeSATP > ADP; UTP inactive | agonist-evoked calcium transients in ORNs [1]: evoked calcium transients | agonist-evoked calcium transients in sustentacular cells [4]: evoked calcium transients | Agonist activity (P2Y1 [6]): 2MeSATP > ADP > ATP; (UTP inactive) | Agonist activity (P2Y11): (UTP, UDP inactive) | Agonist activity (P2Y1 [2]; cDNA from Rat ileal myocytes): (UTP inactive)

O=c1ccn([C@@H]2O[C@H](COP(=O)(O)OP(=O)(O)O)[C@@H](O)[C@H]2O)c(=O)[nH]1 [UDP]
Agonist activity (P2Y11): (UTP, UDP inactive)

Nc1ncnc2c1ncn2[C@@H]1O[C@H](COP(=O)(O)O)[C@@H](O)[C@H]1O [AMP]
evoked calcium transients in olfactory epithelial slices [1]: never observed

Cc1nc(N=Nc2ccc(S(=O)(=O)O)cc2S(=O)(=O)O)c(COP(=O)(O)O)c(C=O)c1O [PPADS, pyridoxalphosphate-6-azophenyl-2′,4′-disulfonic acid]
block of ATP-evoked calcium transients [1, 8]: 87±5% | block of UTP-evoked calcium transients [1, 8]: 92±3% | block of ATP-evoked Ca2+ transients [4, 9]: 82±2% | block of UTP-evoked Ca2+ transients [4, 9]: 76±2%
